Experimental data reported in PubChem BioAssay (NCI).
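Abbreviation: GI50, concentration required for 50% inhibition of growth. TGI: total growth inhibition.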

Assays:
Test in all cases: NCI tumour cell line growth inhibition, 384-well format
ACHN renal = system: ACHN renal
COLO 205 colon = system: COLO 205 colon
DU-145 prostate = system: DU-145 prostate
HCC-2998 colon = system: HCC-2998 colon
HL-60(TB) leukemia = system: HL-60(TB) leukemia
HT29 colon = system: HT29 colon
MOLT-4 leukemia = system: MOLT-4 leukemia
NCI-H23 lung = system: NCI-H23 lung
NCI/ADR-RES ovarian = system: NCI/ADR-RES ovarian
OVCAR-3 ovarian = system: OVCAR-3 ovarian
SK-OV-3 ovarian = system: SK-OV-3 ovarian
UACC-257 melanoma = system: UACC-257 melanoma
UO-31 renal = system: UO-31 renal

## CNC(=O)c1ccc(-c2cnc3ncc(Cc4ccc5ncccc5c4)n3n2)cc1F
ACHN renal
  GI50: > 100 µM
  TGI: > 100 µM
COLO 205 colon
  GI50: > 100 µM
  TGI: > 100 µM
DU-145 prostate
  GI50: > 100 µM
  TGI: > 100 µM
HCC-2998 colon
  GI50: > 100 µM
  TGI: > 100 µM
HL-60(TB) leukemia
  GI50: > 100 µM
  TGI: > 100 µM
HT29 colon
  GI50: > 100 µM
  TGI: > 100 µM
MOLT-4 leukemia
  GI50: > 100 µM
  TGI: > 100 µM
NCI-H23 lung
  GI50: > 100 µM
  TGI: > 100 µM
NCI/ADR-RES ovarian
  GI50: > 100 µM
  TGI: > 100 µM
OVCAR-3 ovarian
  GI50: > 100 µM
  TGI: > 100 µM
SK-OV-3 ovarian
  GI50: > 100 µM
  TGI: > 100 µM
UACC-257 melanoma
  GI50: > 100 µM
  TGI: > 100 µM
UO-31 renal
  GI50: > 100 µM
  TGI: > 100 µM
